Results taken from patent US20100297056A1, “COMPOSITION BASED ON PERHYDROSQUALENE AND COLLAGEN-POLYVINYLPYRROLIDONE FOR FILLING MINOR CUTANEOUS DEPRESSIONS” (ASPID, S.A. DE C.V., priority 2007, published 2010).

Legend:
[1] = humans; cited from earlier work
rat skin = assay: murine model of intradermal administration of implant materials; format: in vivo, rats; settings: sensorial analog scale, papule palpation
Procedure: Because of the above, a murine model essay of intradermal administration was designed, wherein several implant materials were evaluated such as natural and synthetic jojoba oil, peanut oil and perhydrosqualene, mixed with collagen-polyvinylpyrrolidone, various emulsifiers and a gelling agent (dibutyl-lauroyl glutamide). The administration of the implant materials generated papules, formed by the deposition of the material in the reticular dermis of the back of the rats. The papules were evaluated with regard to the tolerance of the tissue to the implant through a visual analog scale during a period of about 30 days, with their intervals; moreover, the eventual occurrence of skin changes such as irritation, ischemia formation and in some cases tissue necrosis related to the implanted material were reported, as well as the durability of the bioimplant that was quantified through a sensorial analog scale derived from the papule palpation.
In the same way, histological rat skin changes were evaluated through biopsies obtained from the implant infiltrated site, said biopsies were collected at different times in order to determine whether changes occurred in the internal skin structure, as well as to observe the implant site, the inflammatory infiltrate, the ratio between type I and type III collagens, as well as the possible formation of granulomes.

[2] = dogs, cited from earlier work
[3] = excreted through natural routes; cited from earlier work
[4] = in vivo; cited from earlier work
[5] = mice; cited from earlier work
[6] = rats, oral, three-month period; cited from earlier work

CC(C)CCCC(C)CCCC(C)CCCCC(C)CCCC(C)CCCC(C)C (stereo not drawn) [perhydrosqualene, 2,6,10,15,19,23-hexamethyltetracosane]
cutaneous and ocular irritation [1]: absence of cutaneous and ocular irritation | durability of the bioimplant in the tissue (rat skin): constant even 15 days after its administration | blood level ([2]; 1200 mg/kg during 14 days): 30 ppm | perhydrosqualene excretion ([2]; 1200 mg/kg during 14 days): 65-90 % per day | perhydrosqualene in blood on day 56 ([2]; day 56 after the first dose): not detectable | metabolism [3]: non-metabolizable | mean lethal dose DL50 [4]: > 20 mL/kg | irritation after subcutaneous injections [5]: absence of cutaneous and ocular irritation | signs of toxicity [6]: did not show signs of toxicity
